Assay results reported in patent US12383533B2 (Frost Biologic, Inc., priority 2014, dated 2025).

Tests used:
porcine neuronal tubulin = test: Tubulin Polymerization Assay; type: biochemical; conditions: porcine tubulin 2.0 mg/ml, 37° C., fluorescence; read-out: IC50 (tubulin polymerization, from Vmax)
Description: Tubulin Polymerization Assay
The Tubulin Polymerization Assay uses porcine neuronal tubulin and measurements are based on fluorescence enhancement due to the incorporation of a fluorescent reporter into microtubules as polymerization occurs. The assay generates a polymerization curve representing the three phases of microtubule formation (nucleation, growth and equilibrium). IC50 values for tested compounds can be generated from the observed polymerization curves.
Procedure: All compounds dilutions (in DMSO) were prepared prior to the following steps. A Molecular Devices M2 plate reader was set to 37° C. Once the internal temperature of the plate reader reached 37° C. a 96 well plate (Corning Costar, at. #3686) was placed in the fluorimeter and allowed to warm to 37° C. for 30 minutes. A total of 10 mg of porcine tubulin was resuspended in […] of Polymerization Buffer [Buffer 1 (80 mM PIPES pH 6.9, 2.0 mM MgCl2, 0.5 mM EGTA, 1.0 mM GTP and 10 μM fluorescent reporter) supplemented with 20% glycerol] to generate a 2.0 mg/ml tubulin stock and this was kept on ice. The 50× compound stocks in 100% DMSO were spotted 1 μl/well in duplicate into the wells of the 96-well plate at 37° C. and allowed to re-warm for 5 minutes at 37° C. During this incubation the 2.0 mg/ml tubulin stock was placed in a disposable plastic trough and allowed to warm briefly at room temperature. To initiate the reaction, 50 μl/well of 2.0 mg/ml tubulin in Polymerization Buffer was added to each well using a multi-channel pipettor and the fluorescence measurements were started immediately.
The maximal velocity (Vmax) of tubulin polymerization was determined using linear regression of the averaged fluorescence data at each time point using GraphPad Prism 5.0 software. The Vmax determinations for each compound at each concentration were then normalized to reactions that contained DMSO (2% final concentration) but no test compounds. This converted the data to % Activity, which refers to the percent of the Vmax of an uninhibited reaction. The concentration response curves were then plotted as the % Activity versus the Log 10 of the compound concentration in micromolar and fit by non-linear regression to a 4-parameter sigmoidal dose-response equation using GraphPad Prism 5.0 software to determine the IC50 for each compound.

A2780 cells = test: Cell Viability Assay (ATPlite 1step), A2780; type: cell-based; conditions: Homo sapiens, 72 hours; for percent inhibition of cell viability at 4 µM: A2780, 4 uM compound, read-out: Cell Viability % inhibition A2780 (4 uM Cpd); for percent inhibition of cell viability at 20 µM: A2780, 20 uM compound, read-out: Cell Viability % inhibition A2780 (20 uM Cpd)
Experimental: (§1) Cell Viability Assay Protocol
(§2) Cells were trypsinized, counted, and re-seeded into a 384-well tissue culture plate at 1000 cells per well in […] media. Cells were incubated at 37° C. in an atmosphere of 5% CO2 for 24 hours. Experimental compounds, initially dissolved in DMSO and diluted further in media were added to the wells and incubated for 72 hours. Cell viability was measured using the ATPlite 1step Luminescence Detection Assay system (Perkin Elmer) as described in the Assay kit instructions.
(§3) Cell Culture Lines and Media: (1) A2780 cells were cultured in RPMI media with 10% FBS and 1% antibiotics. Cells were typically split every 3-5 days at a 1:10 dilution; (2) PC3 cells were cultured in RPMI media with 10% FBS and 1% antibiotics. Cells were typically split every 3-5 days at a 1:4 dilution; (3) MCF-7 cells were grown in K-12F media with 10% FBS and 1% antibiotics. Cells were typically split every 3-5 days at a 1:10 dilution.

MCF-7 cells = test: Cell Viability Assay (ATPlite 1step), MCF-7; type: cell-based; conditions: Homo sapiens, MCF7, 72 hours; for percent inhibition of cell viability at 4 µM: MCF-7, 4 uM compound, read-out: Cell Viability % inhibition MCF-7 (4 uM Cpd); for percent inhibition of cell viability at 20 µM: MCF-7, 20 uM compound, read-out: Cell Viability % inhibition MCF-7 (20 uM Cpd)
Experimental: as §1, §2, §3

PC3 cells = test: Cell Viability Assay (ATPlite 1step), PC3; type: cell-based; conditions: Homo sapiens, PC-3, 72 hours; for percent inhibition of cell viability at 4 µM: PC3, 4 uM compound, read-out: Cell Viability % inhibition PC3 (4 uM Cpd); for percent inhibition of cell viability at 20 µM: PC3, 20 uM compound, read-out: Cell Viability % inhibition PC3 (20 uM Cpd)
Experimental: as §1, §2, §3

| IC50 (porcine neuronal tubulin) [nM] | SMILES | percent inhibition of cell viability at 4 µM (A2780 cells) [%] | percent inhibition of cell viability at 20 µM (A2780 cells) [%] | percent inhibition of cell viability at 4 µM (MCF-7 cells) [%] | percent inhibition of cell viability at 20 µM (MCF-7 cells) [%] | percent inhibition of cell viability at 4 µM (PC3 cells) [%] | percent inhibition of cell viability at 20 µM (PC3 cells) [%] |
| --- | --- | --- | --- | --- | --- | --- | --- |
| 120 | Cc1ncc(C(=O)Nc2ccc(-c3cccc(S(=O)(=O)C4CC4)c3)c(C)n2)cn1 [Compound 64, N-{5-[3-(cyclopropylsulfonyl)phenyl]-6-methylpyridin-2-yl}-2-methylpyrimidine-5-carboxamide] | 80 | 81.5 | 73.5 | 74.5 | 59.4 | 62.7 |
| 200 | CC[C@]1(O)C[C@@H]2CN(CCc3c([nH]c4ccccc34)[C@@](C(=O)OC)(c3cc4c(cc3OC)N(C)[C@H]3[C@@](O)(C(=O)OC)[C@H](OC(C)=O)[C@]5(CC)C=CCN6CC[C@]43[C@@H]65)C2)C1 [Vinblastine, reference compound] |  |  |  |  |  |  |
| 10 | Cc1ncc(C(=O)Nc2ncc(-c3cccc(S(=O)(=O)C4CC4)c3)cc2F)cn1 [Compound 70, N-{5-[3-(cyclopropylsulfonyl)phenyl]-3-fluoropyridin-2-yl}-2-methylpyrimidine-5-carboxamide] | 86.3 | 87.8 | 61.1 | 66.1 | 58.4 | 65 |
| 480 | O=C(Nc1ccc(-c2cccc(C3CC3)c2)cn1)c1cncnc1 [Compound 16, N-[5-(3-cyclopropylphenyl)pyridin-2-yl]pyrimidine-5-carboxamide] | 90.4 | 92.1 | 70.2 | 78.4 | 73.7 | 77.7 |
| 300 | Cc1ccc(C(=O)Nc2ccc(-c3cccc(C4COC4)c3)cn2)cn1 [Compound 44, 6-methyl-N-{5-[3-(oxetan-3-yl)phenyl]pyridin-2-yl}pyridine-3-carboxamide] | 86.5 | 86.1 |  |  | 81.8 | 84.6 |
| 890 | Cc1ncc(C(=O)Nc2ccc(-c3cccc(C4CC4)c3)cn2)cn1 [Compound 23, N-[5-(3-cyclopropylphenyl)pyridin-2-yl]-2-methylpyrimidine-5-carboxamide] | 71.5 | 80.3 |  |  | 53.7 | 66.2 |
| 680 | CC[C@]1(O)C[C@H]2CN(CCc3c([nH]c4ccccc34)[C@@](C(=O)OC)(c3cc4c(cc3OC)N(C=O)[C@H]3[C@@](O)(C(=O)OC)[C@H](OC(C)=O)[C@]5(CC)C=CCN6CC[C@]43[C@@H]65)C2)C1 [Vincristine, reference compound] |  |  |  |  |  |  |
| 320 | Cc1ncc(C(=O)Nc2ccc(-c3cccc(NC4CC4)c3)cn2)cn1 [Compound 31, N-{5-[3-(cyclopropylamino)phenyl]pyridin-2-yl}-2-methylpyrimidine-5-carboxamide] | 70.9 | 71.2 |  |  | 51.8 | 43.7 |
|  | Cc1ncc(C(=O)Nc2ncc(-c3cc(Cl)cc(N4CCNCC4)c3)cc2F)cn1 [Compound 54, N-{5-[3-chloro-5-(piperazin-1-yl)phenyl]-3-Fluoropyridin-2-yl}-2-methylpyrimidine-5-carboxamide] | -6.4 | 64.6 | 23.8 | 42.6 | 0.2 | 34.8 |
|  | Cc1ncc(C(=O)Nc2ccc(-c3cc(N4CCN(C)CC4)cc(S(=O)(=O)C4CC4)c3)cn2)cn1 [Compound 49, N-{5-[3-cyclopropylsulfonyl-5-(4-methylpiperazin-1-yl)phenyl]pyridin-2-yl}-2-methylpyrimidine-5-carboxamide] | 16.9 | 59.5 | 28.1 | 48.3 | 19.4 | 39.7 |
|  | O=C(Nc1ccc(-c2ccccc2)cn1)c1cccnc1 [Compound 10, N-(5-phenylpyridin-2-yl)pyridine-3-carboxamide] | 92.7 | 95.2 | 61.4 | 86.4 | 71.8 | 87.3 |
|  | Cc1ncc(C(=O)Nc2ccc(-c3cc(NC4CC4)cc(N4CCN(C)CC4)c3)c(C)n2)cn1 [Compound 52, N-{5-[3-cyclopropylamino-5-(4-methylpiperazin-1-yl)phenyl]-6-methylpyridin-2-yl}-2-methylpyrimidine-5-carboxamide] | 8 | 69.5 | -1.6 | 22.2 | 35 | 52.5 |
|  | Cc1ncc(C(=O)Nc2ccc(-c3cc(Cl)cc(N4CCN(C)CC4)c3)c(C)n2)cn1 [Compound 48, N-{5-[3-chloro-5-(4-methylpiperazin-1-yl)phenyl]-6-methylpyridin-2-yl}-2-methylpyrimidine-5-carboxamide] | 79.2 | 88.8 | 36.5 | 47.8 | 72 | 67 |
|  | Cc1ncc(C(=O)Nc2ccc(-c3cc(C4CC4)cc(N4CCN(C)CC4)c3)cn2)cn1 [Compound 53] | 15.1 | 74.8 | 11.3 | 39.6 | 12.3 | 67.1 |
|  | Cc1ncc(C(=O)Nc2ccc(-c3cc(NC4CC4)cc(N4CCN(C)CC4)c3)cn2)cn1 [Compound 51, N-{5-[3-cycopropylamino-5-(4-methylpiperazin-1-yl)phenyl]pyridin-2-yl}-2-methylpyrimidine-5-carboxamide] | 6.8 | 76 | 22.9 | 49.5 | 17.3 | 65.7 |
| 680 | Cc1ncc(C(=O)Nc2ccc(-c3cccc(OC4CC4)c3)cn2)cn1 [Compound 27, N-{5-[3-(cyclopropyloxy)phenyl]pyridin-2-yl}-2-methylpyrimidine-5-carboxamide] | 77.3 | 77.4 |  |  | 58.3 | 69.6 |
|  | O=C(Nc1ccc(-c2ccco2)cn1)c1cncnc1 [Compound 20, N-[5-(furan-2-yl)pyridin-2-yl]pyrimidine-5-carboxamide] | 84 | 91.1 | 56.3 | 61.2 | 59.9 | 69.4 |
